Results reported in US20250034135A1, “ANTI-APOPTOTIC PROTEIN BCL-2 INHIBITOR, PHARMACEUTICAL COMPOSITION AND USES THEREOF” (HANGZHOU HEALZEN THERAPEUTICS CO., LTD., priority 2021, published 2025).

What follows are molecules tested against BCL2 (Homo sapiens (Human), UniProt P10415) (assay: Molecular level activity test of anti-apoptotic protein BCL2 (HTRF, binding to Bim peptide)). Details: HTRF, binding of BCL2 to Bim peptide; read-out: BCL2 nM (inhibitory activity, IC50).
How it was run: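 Signal comes from proximity of anti-His-labelled BCL2 and streptavidin-XL665-bound biotin-BIM peptide. Test compounds, added in 2% DMSO, were preincubated with protein and peptide for one hour; detection reagents then incubated four hours at room temperature before reading.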

Sequence of BCL2 (P10415 whole entry): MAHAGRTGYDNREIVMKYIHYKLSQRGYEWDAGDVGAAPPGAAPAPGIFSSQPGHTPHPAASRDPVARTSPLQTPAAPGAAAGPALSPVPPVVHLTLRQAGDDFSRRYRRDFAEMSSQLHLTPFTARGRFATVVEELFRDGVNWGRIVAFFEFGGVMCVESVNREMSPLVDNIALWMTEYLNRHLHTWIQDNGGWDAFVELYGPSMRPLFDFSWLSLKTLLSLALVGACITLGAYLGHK

For `COc1ccc(CN2CCN(C3CC4(CCN(c5cc(Oc6cnc7[nH]ccc7c6)c(C(=O)NS(=O)(=O)c6cc([N+](=O)[O-])c(NC[C@H]7COCCO7)c7c6OCO7)cc5F)CC4)C3)[C@H](c3ccccc3C(C)C)C2)cc1` [compound 123], which IC50 is on record?
The IC50 was less than 0.01 µM.

How did the IC50 turn out when `COc1ccc(CN2CCN(C3CC4(CCN(c5cc(Oc6cnc7[nH]ccc7c6)c(C(=O)NS(=O)(=O)c6cc([N+](=O)[O-])c(NC[C@H]7COCCO7)c7ocnc67)cc5F)CC4)C3)[C@H](c3ccccc3C(C)C)C2)cc1` [compound 124] was run?
Its IC50 is less than 0.01 µM.

For `COc1ccc(CN2CCN(C3CC4(CCN(c5cc(Oc6cnc7[nH]ccc7c6)c(C(=O)NS(=O)(=O)c6cc([N+](=O)[O-])c(NC[C@H]7COCCO7)c7scnc67)cc5F)CC4)C3)[C@H](c3ccccc3C(C)C)C2)cc1` [compound 125], which IC50 is on record?
Its IC50 is less than 0.01 µM.

How did the IC50 turn out when `COc1ccc(CN2CCN(C3CC4(CCN(c5cc(Oc6cnc7[nH]ccc7c6)c(C(=O)NS(=O)(=O)c6cc([N+](=O)[O-])c(NCC7(F)CCOCC7)c7c6OCO7)cc5F)CC4)C3)[C@H](c3ccccc3C(C)C)C2)cn1` [compound 126] was run?
Its IC50 is less than 0.01 µM.

For `COc1ccc(CN2CCN(C3CC4(CCN(c5cc(Oc6cnc7[nH]ccc7c6)c(C(=O)NS(=O)(=O)c6cc([N+](=O)[O-])c(NCC7(F)CCOCC7)c7ocnc67)cc5F)CC4)C3)[C@H](c3ccccc3C(C)C)C2)cn1` [compound 127, (R)-2-((1H-pyrrolo[2,3-b]pyrid-5-yl)oxy)-5-fluoro-N-((7-(((4-fluorotetrahydro-2H-pyran-4-yl)methyl)amino)-6-nitrobenzo[d]oxazol-4-yl)sulfonyl)-4-(2-(2-(2-isopropylphenyl)-4-((6-methoxypyrid-3-yl)methyl)piperazin-1-yl)-7-azaspiro[3.5]non-7-yl)benzamide], which IC50 is on record?
The IC50 was less than 0.01 µM.

Which IC50 does the source give for `COc1ccc(CN2CCN(C3CC4(CCN(c5cc(Oc6cnc7[nH]ccc7c6)c(C(=O)NS(=O)(=O)c6cc([N+](=O)[O-])c(NCC7(F)CCOCC7)c7scnc67)cc5F)CC4)C3)[C@H](c3ccccc3C(C)C)C2)cn1` [compound 128, (R)-2-((1H-pyrrolo[2,3-b]pyrid-5-yl)oxy)-5-fluoro-N-((7-(((4-fluorotetrahydro-2H-pyran-4-yl)methyl)amino)-6-nitrobenzo[d]thiazol-4-yl)sulfonyl)-4-(2-(2-(2-isopropylphenyl)-4-((6-methoxypyrid-3-yl)methyl)piperazin-1-yl)-7-azaspiro[3.5]non-7-yl)benzamide] here?
Its IC50 is less than 0.01 µM.

How did the IC50 turn out when `COc1ccc(CN2CCN(C3CC4(CCN(c5cc(Oc6cnc7[nH]ccc7c6)c(C(=O)NS(=O)(=O)c6cc([N+](=O)[O-])c(NCC7(F)CCOCC7)c7occc67)cc5F)CC4)C3)[C@H](c3ccccc3C(C)C)C2)cn1` [compound 129, (R)-2-((1H-pyrrolo[2,3-b]pyrid-5-yl)oxy)-5-fluoro-N-((7-(((4-fluorotetrahydro-2H-pyran-4-yl)methyl)amino)-6-nitrobenzofuran-4-yl)sulfonyl)-4-(2-(2-(2-isopropylphenyl)-4-((6-methoxypyrid-3-yl)methyl)piperazin-1-yl)-7-azaspiro[3.5]non-7-yl)benzamide] was run?
Its IC50 is less than 0.01 µM.

For `COc1ccc(CN2CCN(C3CC4(CCN(c5cc(Oc6cnc7[nH]ccc7c6)c(C(=O)NS(=O)(=O)c6cc([N+](=O)[O-])c(NCC7(F)CCOCC7)c7c6OCO7)cc5F)CC4)C3)[C@H](c3ccccc3C(C)C)C2)c(F)n1` [compound 130, (R)-2-((1H-pyrrolo[2,3-b]pyrid-5-yl)oxy)-5-fluoro-4-(2-(4-((2-fluoro-6-methoxypyrid-3-yl)methyl)-2-(2-isopropylphenyl)piperazin-1-yl)-7-azaspiro[3.5]non-7-yl)-N-((7-(((4-fluorotetrahydro-2H-pyran-4-yl)methyl)amino)-6-nitrobenzo[d][1,3]dioxocyclopent-4-yl)sulfonyl)benzamide], which IC50 is on record?
Its IC50 is less than 0.01 µM.

With `COc1ccc(CN2CCN(C3CC4(CCN(c5cc(Oc6cnc7[nH]ccc7c6)c(C(=O)NS(=O)(=O)c6cc([N+](=O)[O-])c(NCC7(F)CCOCC7)c7ocnc67)cc5F)CC4)C3)[C@H](c3ccccc3C(C)C)C2)c(F)n1` [compound 131, (R)-2-((1H-pyrrolo[2,3-b]pyrid-5-yl)oxy)-5-fluoro-4-(2-(4-((2-fluoro-6-methoxypyrid-3-yl)methyl)-2-(2-isopropylphenyl)piperazin-1-yl)-7-azaspiro[3.5]non-7-yl)-N-((7-(((4-fluorotetrahydro-2H-pyran-4-yl)methyl)amino)-6-nitrobenzo[d]yl)sulfonyl)benzamide] as the molecule, how does the IC50 read?
Its IC50 is less than 0.01 µM.

With `COc1ccc(CN2CCN(C3CC4(CCN(c5cc(Oc6cnc7[nH]ccc7c6)c(C(=O)NS(=O)(=O)c6cc([N+](=O)[O-])c(NCC7(F)CCOCC7)c7c6OCO7)cn5)CC4)C3)[C@H](c3ccccc3C(C)C)C2)cc1` [compound 132, (R)-4-((1H-pyrrolo[2,3-b]pyrid-5-yl)oxy)-N-((7-(((4-fluorotetrahydro-2H-pyran-4-yl)methyl)amino)-6-nitrobenzo[d][1,3]dioxocyclopent-4-yl)sulfonyl)-6-(2-(2-(2-isopropylphenyl)-4-(4-methoxybenzyl)piperazin-1-yl)-7-azaspiro[3.5]non-7-yl) nicotinamide] as the molecule, how does the IC50 read?
Its IC50 is less than 0.01 µM.

With `COc1ccc(CN2CCN(C3CC4(CCN(c5cc(Oc6cnc7[nH]ccc7c6)c(C(=O)NS(=O)(=O)c6cc([N+](=O)[O-])c(NCC7(F)CCOCC7)c7ocnc67)cn5)CC4)C3)[C@H](c3ccccc3C(C)C)C2)cc1` [compound 133, (R)-4-((1H-pyrrolo[2,3-b]pyridine-5-yl)oxy)-N-((7-(((4-fluorotetrahydro-2H-pyran-4-yl)methyl)amino)-6-nitrobenzo[d]oxazol-4-yl)sulfonyl)-6-(2-(2-(2-isopropylphenyl)-4-(4-methoxybenzyl)piperazin-1-yl)-7-azaspiro[3.5]non-7-yl) nicotinamide] as the molecule, how does the IC50 read?
The IC50 was less than 0.01 µM.

How did the IC50 turn out when `COc1ccc(CN2CCN(C3CC4(CCN(c5cc(Oc6cnc7[nH]ccc7c6)c(C(=O)NS(=O)(=O)c6cc([N+](=O)[O-])c(NCC7(F)CCOCC7)c7scnc67)cn5)CC4)C3)[C@H](c3ccccc3C(C)C)C2)cc1` [compound 134, (R)-4-((1H-pyrrolo[2,3-b]pyridine-5-yl)oxy)-N-((7-(((4-fluorotetrahydro-2H-pyran-4-yl)methyl)amino)-6-nitrobenzo[d]thiazol-4-yl)sulfonyl)-6-(2-(2-(2-isopropylphenyl)-4-(4-methoxybenzyl)piperazin-1-yl)-7-azaspiro[3.5]non-7-yl) nicotinamide] was run?
Its IC50 is less than 0.01 µM.

`COc1ccc(CN2CCN(C3CC4(CCN(c5cc(Oc6cnc7[nH]ccc7c6)c(C(=O)NS(=O)(=O)c6cc([N+](=O)[O-])c(NCC7(F)CCOCC7)c7occc67)cn5)CC4)C3)[C@H](c3ccccc3C(C)C)C2)cc1` [compound 135, (R)-4-((1H-pyrrolo[2,3-b]pyrid-5-yl)oxy)-N-((7-(((4-fluorotetrahydro-2H-pyran-4-yl)methyl)amino)-6-nitrobenzofuran-4-yl)sulfonyl)-6-(2-(2-(2-isopropylphenyl)-4-(4-methoxybenzyl)piperazin-1-yl)-7-azaspiro[3.5]non-7-yl) nicotinamide] was tested. Which IC50 did it give?
The IC50 was less than 0.01 µM.

Which IC50 does the source give for `COc1ccc(CN2CCN(C3CC4(CCN(c5cc(Oc6cnc7[nH]ccc7c6)c(C(=O)NS(=O)(=O)c6cc([N+](=O)[O-])c(NCC7(F)CCOCC7)c7c6OCCO7)cn5)CC4)C3)[C@H](c3ccccc3C(C)C)C2)cc1` [compound 136, (R)-4-((1H-pyrrolo[2,3-b]pyrid-5-yl)oxy)-N-((8-(((4-fluorotetrahydro-2H-pyran-4-yl)methyl)amino)-7-nitro-2,3-dihydrobenzo[b][1,4]dioxan-5-yl)sulfonyl)-6-(2-(2-(2-isopropylphenyl)-4-(4-methoxybenzyl)piperazin-1-yl)-7-azaspiro[3.5]non-7-yl) nicotinamide] here?
Its IC50 is less than 0.01 µM.

How did the IC50 turn out when `COc1ccc(CN2CCN(C3CC4(CCN(c5cc(Oc6cnc7[nH]ccc7c6)c(C(=O)NS(=O)(=O)c6cc([N+](=O)[O-])c(NC[C@H]7CC[C@](C)(O)CC7)c7c6OCO7)cn5)CC4)C3)[C@H](c3ccccc3C(C)C)C2)cc1` [compound 137, 4-((1H-pyrrolo[2,3-b]pyrid-5-yl)oxy)-N-((7-((((1r, 4r)-4-hydroxy-4-methylcyclohexyl)methyl)amino)-6-nitrobenzo[d][1,3]dioxocyclopent-4-yl)sulfonyl)-6-(2-((R)-2-(2-isopropylphenyl)-4-(4-methoxybenzyl)piperazin-1-yl)-7-azaspiro[3.5]non-7-yl) nicotinamide] was run?
Its IC50 is less than 0.01 µM.

For `COc1ccc(CN2CCN(C3CC4(CCN(c5cc(Oc6cnc7[nH]ccc7c6)c(C(=O)NS(=O)(=O)c6cc([N+](=O)[O-])c(NC[C@H]7CC[C@](C)(O)CC7)c7ocnc67)cn5)CC4)C3)[C@H](c3ccccc3C(C)C)C2)cc1` [compound 138, 4-((1H-pyrrolo[2,3-b]pyrid-5-yl)oxy)-N-((7-((((1r, 4r)-4-hydroxy-4-methylcyclohexyl)methyl)amino)-6-nitrobenzo[d]oxazol-4-yl)sulfonyl)-6-(2-((R)-2-(2-isopropylphenyl)-4-(4-methoxybenzyl)piperazin-1-yl)-7-azaspiro[3.5]non-7-yl) nicotinamide], which IC50 is on record?
The IC50 was less than 0.01 µM.

For `COc1ccc(CN2CCN(C3CC4(CCN(c5cc(Oc6cnc7[nH]ccc7c6)c(C(=O)NS(=O)(=O)c6cc([N+](=O)[O-])c(NC[C@H]7CC[C@](C)(O)CC7)c7occc67)cn5)CC4)C3)[C@H](c3ccccc3C(C)C)C2)cc1` [compound 139, 4-((1H-pyrrolo[2,3-b]pyrid-5-yl)oxy)-N-((7-((((1r, 4r)-4-hydroxy-4-methylcyclohexyl)methyl)amino)-6-nitrobenzofuran-4-yl)sulfonyl)-6-(2-((R)-2-(2-isopropylphenyl)-4-(4-methoxybenzyl)piperazin-1-yl)-7-azaspiro[3.5]non-7-yl) nicotinamide], which IC50 is on record?
The IC50 was less than 0.01 µM.

`COc1ccc(CN2CCN(C3CC4(CCN(c5cc(Oc6cnc7[nH]ccc7c6)c(C(=O)NS(=O)(=O)c6cc([N+](=O)[O-])c(NC[C@H]7CC[C@](C)(O)CC7)c7scnc67)cn5)CC4)C3)[C@H](c3ccccc3C(C)C)C2)cc1` [compound 140, 4-((1H-pyrrolo[2,3-b]pyrid-5-yl)oxy)-N-((7-((((1r, 4r)-4-hydroxy-4-methylcyclohexyl)methyl)amino)-6-nitrobenzo[d]thiazol-4-yl)sulfonyl)-6-(2-((R)-2-(2-isopropylphenyl)-4-(4-methoxybenzyl)piperazin-1-yl)-7-azaspiro[3.5]non-7-yl) nicotinamide] was tested. Which IC50 did it give?
Its IC50 is less than 0.01 µM.
